Where “and” joins values, the source holds several entries; their conditions need not be identical. Identical values can stand only once.
Legend:
[1] = Time course of blood pyruvate concentration after oral gavage (bioavailability of pyruvate); type: in vivo, male Sprague-Dawley rats; conditions: rat; for Blood pyruvate concentration: single animals
Excerpt: The basic measurement is the time course of serum pyruvate concentration following oral administration of tripyruvin, compared with that following oral administration of sodium pyruvate or a placebo.
Six male Sprague-Dawley rats, weighing 380±28 grams (mean±standard deviation), were used in the initial animal experiments. The rats were divided into three groups of two rats each, one group of two for the experimental treatment, one group for the conventional sodium pyruvate treatment, and one group for placebo. The rats were housed in hanging wire cages (two per cage) in a room maintained at 22° C., and were kept on a twelve-hour light/dark cycle with lights on at 7 AM. All animals had free access to water and to standard laboratory rodent chow; except that on nights before an experiment food was removed at 6 PM.
An initial time-course experiment was performed with the crude reaction mixture, in which tripyruvin and free pyruvate were both present (i.e., with the product of “Step 4” n the synthesis described above, without the further purification of “Step 5.”) 1.14 g of this mixture (76% sodium pyruvate, 24% tripyruvin=0.79 total pyruvate) in 2 mL sterile water was fed by gavage in a single dose. For comparison, rats were fed an equivalent amount of pyruvate as sodium pyruvate in water; or were fed a placebo comprising water only. Blood samples (250 μL) taken from a snipped tail vein were collected before feeding, and at 60, 90, 120, and 150 minutes after gavage feeding.
The assay for serum pyruvate concentration was a modification of the Sigma NADH-NAD assay. Collected blood samples were diluted 1:3 in cold 8% perchloric acid (aqueous), and the precipitates were vortexed and centrifuged. Supernatant (100 μL) was pipetted into a microtiter plate. Trizma base (25 μL) was pipetted into the plate, followed by 25 μL of aqueous NADH solution (1 g/2.2 mL). The absorbance of the solution at 340 nm was then measured as a baseline. […] dehydrogenase (50 μL, 10 U/mL) was then pipetted into the plate, and the plate was incubated at 37° C. for 3-5 minutes. Absorbance at 340 nm was again measured (to assay the extent of the reaction NADH→NAD+H^+). Standards and two levels of quality control samples were run with each plate. Results are shown in Table 1 for each of the six rats.

[2] = Solubility in water; type: physicochemical
Excerpt: After purification, the identity of the tripyruvin was confirmed by laser-desorption mass spectrometry, elemental analysis, and ^1H nuclear magnetic resonance.

[3] = oral gavage, compared with sodium pyruvate

| Blood pyruvate concentration ([1]; 60 min after single oral gavage dose in 2 mL water) | Blood pyruvate concentration ([1]; 90 min after single oral gavage dose in 2 mL water) | Blood pyruvate concentration ([1]; 120 min after single oral gavage dose in 2 mL water) [mM] | Blood pyruvate concentration ([1]; 150 min after single oral gavage dose in 2 mL water) | Blood pyruvate concentration ([1]; time 0 min (before gavage feeding)) | Solubility in water [2] | Bioavailability of pyruvate [1, 3] | Rise in blood pyruvate levels [1, 3] | Structure (SMILES) |
| --- | --- | --- | --- | --- | --- | --- | --- | --- |
| 0.07 mM and 0.10 mM | 0.07 mM and 0.09 mM | 0.12 | 0.12 mM and 0.16 mM | 0.07 mM and 0.06 mM |  |  |  | CC(=O)C(=O)[O-].[Na+] [sodium pyruvate] |
|  |  |  |  |  | freely soluble | higher | more rapid rise | CC(=O)C(=O)OCC(COC(=O)C(C)=O)OC(=O)C(C)=O [tripyruvin, tripyruvyl glycerol] |

Source: patent publication US6417231B1, “Method and composition for delivering therapeutically effective amounts of pyruvate to a mammal” (priority 1996, dated 2002)
